Test results as given in the NIST ThermoML archive (doi:10.1021/je2004462).
± gives the expanded uncertainty stated by the source.

Legend:
[1] = refractive index (Na D-line) (dimensionless); details: 101.33 kPa, Liquid, Standard Abbe refractometry
[2] = for mass density / viscosity: 101.33 kPa, Liquid; for surface tension liquid-gas: Pendant drop shape

SMILES | refractive index ([1]; 293.15 K) | refractive index ([1]; 303.15 K) | refractive index ([1]; 313.15 K) | refractive index ([1]; 323.15 K) | refractive index ([1]; 333.15 K) | refractive index ([1]; 343.15 K) | refractive index ([1]; 353.15 K) | mass density ([2]; 293.15 K) | viscosity ([2]; 293.15 K) | surface tension liquid-gas ([2]; 303.15 K) | mass density ([2]; 303.15 K) | viscosity ([2]; 303.15 K) | surface tension liquid-gas ([2]; 313.15 K) | mass density ([2]; 313.15 K) | viscosity ([2]; 313.15 K) | surface tension liquid-gas ([2]; 323.15 K) | mass density ([2]; 323.15 K) | viscosity ([2]; 323.15 K) | surface tension liquid-gas ([2]; 333.15 K) | mass density ([2]; 333.15 K) | further results
CCOS(=O)(=O)[O-].CCn1cc[n+](C)c1 [1-ethyl-3-methylimidazolium ethyl sulfate] | 1.47959 ± 0.00047 | 1.47694 ± 0.00047 | 1.47429 ± 0.00047 | 1.47158 ± 0.00047 | 1.46893 ± 0.00047 | 1.46625 ± 0.00047 | 1.46359 ± 0.00047 | 1241.86 ± 1.3 kg/m3 | 122.07 ± 6 mPa·s | 47.34 ± 0.5 mN/m | 1235.06 ± 1.3 kg/m3 | 75.1 ± 1.9 mPa·s | 46.67 ± 0.5 mN/m | 1228.28 ± 1.3 kg/m3 | 49.84 ± 0.9 mPa·s | 46.17 ± 0.49 mN/m | 1221.54 ± 1.2 kg/m3 | 35.34 ± 0.62 mPa·s | 45.53 ± 0.49 mN/m | 1214.84 ± 1.2 kg/m3 | viscosity ([2]; 333.15 K): 25.93 ± 0.45 mPa·s; mass density ([2]; 343.15 K): 1208.19 ± 1.2 kg/m3; viscosity ([2]; 343.15 K): 19.36 ± 0.34 mPa·s; mass density ([2]; 353.15 K): 1201.58 ± 1.2 kg/m3; viscosity ([2]; 353.15 K): 15.12 ± 0.26 mPa·s
CCn1cc[n+](C)c1.O=S(=O)([O-])C(F)(F)C(F)F | 1.441 ± 0.00047 | 1.43833 ± 0.00047 | 1.4357 ± 0.00047 | 1.43304 ± 0.00047 | 1.43041 ± 0.00047 | 1.42777 ± 0.00047 | 1.42514 ± 0.00047 | 1435.84 ± 2 kg/m3 | 117.43 ± 5.6 mPa·s | 43.29 ± 0.47 mN/m | 1427.44 ± 2 kg/m3 | 72.64 ± 1.7 mPa·s | 42.45 ± 0.46 mN/m | 1419.04 ± 2 kg/m3 | 48.32 ± 0.87 mPa·s | 42.03 ± 0.45 mN/m | 1410.67 ± 2 kg/m3 | 33.94 ± 0.6 mPa·s | 41.43 ± 0.45 mN/m | 1402.33 ± 1.9 kg/m3 | viscosity ([2]; 333.15 K): 25.05 ± 0.44 mPa·s; mass density ([2]; 343.15 K): 1394.02 ± 1.9 kg/m3; viscosity ([2]; 343.15 K): 18.86 ± 0.33 mPa·s; mass density ([2]; 353.15 K): 1385.76 ± 1.9 kg/m3; viscosity ([2]; 353.15 K): 14.74 ± 0.26 mPa·s
